Laboratory results from a melting point compilation (Tetko et al.; mined from patent text by program, amines drawn as free bases though some values may be those of a salt).

For `COC1c2sccc2C(=O)c2ccccc2C1Br` (stereo not given), the melting point was 103 to 106 °C.
With `C=Cc1ccc(OC)cc1C1C(C(=O)OC)=C(C)NC(C)=C1C(=O)OC` the melting point was 141 to 143 °C.
For `COc1ccc(C(=O)c2oc3cccc(O)c3c2C)cc1`, the melting point was 192 to 195 °C.
Molecule `CC(C)(C)COc1ccc(N)cc1Br` has a melting point of 45 °C.
`Cc1cc(-c2ccc(S(C)(=O)=O)cc2)n(-c2ccc(Br)cc2)c1C` showed a melting point of 215 to 219 °C.
With `OC1=NN(c2cc(-c3ccnc(Nc4cccc(Cl)c4)n3)ccn2)CC1` the melting point was 222 to 226 °C.
In the case of `c1ccc(-n2nnc3ccc(Cn4ccnc4)cc32)cc1`, the melting point is reported as 110 °C.
With `CCCCN(CCCC)CCCOc1ccc(S(=O)(=O)c2ncsc2-c2ccccc2)cc1` the melting point was 110 °C.
Work on `Cc1ccc(-c2c(O)nc(S)nc2O)cc1` yielded a melting point of 290 to 292 °C.
Molecule `O=C(COc1cc(C(=O)O)c(O)c2ccccc12)Nc1ccccc1` has a melting point of 165 to 166 °C.
With `Cc1cc(Oc2c(Cl)cc(C(F)(F)F)cc2Cl)nn1C(=O)NCCN1CCOCC1` the melting point was 99 to 101 °C.
With `O=C(c1ccccc1)c1cc2ccncc2[nH]1` the melting point was 245 to 247 °C.
In the case of `CN(C1CCCOc2ccccc21)S(C)(=O)=O` (stereo not given), the melting point is reported as 143 to 145 °C.
With `COC(=O)c1ccccc1-c1ccc(CN2C(=O)c3ccccc3C2=O)cc1` the melting point was 148 to 150 °C.
`COC(=O)c1cc(OC)c(C#N)c(OC)c1` showed a melting point of 151 to 153 °C.
For `O=C(O)CC(NS(=O)(=O)c1ccc2ccccc2c1)c1ccc2c(c1)OCO2` (stereo not given), the melting point was 173 to 175 °C.
With `CCCCCCCCCCCC(CC(=O)NC(CCCNC(=O)OCc1ccccc1)COC1CCCCO1)OCc1ccccc1` (stereo not given) the melting point was 84 to 86 °C.
Molecule `C[C@H](CO)Cn1c2ccccc2c2ccccc21` has a melting point of 80 to 81 °C.
In the case of `O=C(NCCc1ncc(Cl)cc1Cl)c1ccccc1C(F)(F)F`, the melting point is reported as 118 °C.
Work on `Cc1cc(=S)c2c(O)cc(OC(C)C)cc2o1` yielded a melting point of 119 to 120 °C.
For `N#Cc1ccc(CN2C(=O)C3(COc4cc5c(cc43)OCCO5)c3ccccc32)cc1` (stereo not given), the melting point was 69 to 72 °C.
Work on `COc1ccc(S(=O)(=O)C2(C(=O)NO)CCN(CC=C(C)C)CC2)cc1` yielded a melting point of 142 to 145 °C.
`CC(=O)Nc1ccc2cc(S(N)(=O)=O)sc2c1` showed a melting point of 214 to 217 °C.
`CC1(Cn2nc(-c3ccccc3)oc2=O)Cn2cc([N+](=O)[O-])nc2O1` (stereo not given) showed a melting point of 225 to 227 °C.
With `COc1cc(C(C)=O)ccc1OCCCN1CCC(c2noc3ccc(F)cc23)CC1` the melting point was 103 to 105 °C.
With `O=C1NC(=O)C2(N1)C1CC3CC(C1)CC2C3` (stereo not given) the melting point was 290 to 293 °C.
For `CNC=C(C(=O)C=Cc1ccc(Cl)cc1)C(=O)OC`, the melting point was 114 to 116 °C.
`COc1ccc(C(=O)Cc2c(Cl)cncc2Cl)c2c1OC1(CCCC1)O2` gave a melting point of 110 to 112 °C.
`CCOC(=O)Nc1cc(F)c(C#N)cc1F` showed a melting point of 107 °C.
`CN(C)C(=O)N1CCC(Oc2ccc(C(F)(F)F)cc2)(c2ccccc2)CC1` showed a melting point of 158 to 160 °C.
`C=CCNc1cc(Cl)nnc1Cl` gave a melting point of 95 to 98 °C.
For `O=C1Cc2ccc(C3CCCC3)cc2O1`, the melting point was 42 to 43 °C.
With `COc1cc(CO)c(-c2cccc(OCCC(C)CCCC(C)C)c2)cc1CO` (stereo not given) the melting point was 55 °C.
Molecule `O=C(O)c1cccc(-c2cc3c(Nc4cccc(Cl)c4)ncnc3[nH]2)c1` has a melting point of over 300 °C.
`CCCC(=O)C1=C(O)CC(c2cccnc2)CC1=O` (stereo not given) gave a melting point of 72 °C.
`Clc1nc(Cl)nc(Nc2ccc(OCc3ccccc3)c(Cl)c2)n1` showed a melting point of 145 °C.
In the case of `CCOC(Cl)(Cl)C1OC(=C(Cl)Cl)c2cc(C(=O)O)ccc2O1` (stereo not given), the melting point is reported as 121 to 122 °C.
In the case of `CC(=O)OCc1ccc(S(=O)(=O)c2ccc(C)nc2Nc2c(C)cc(C)cc2C)cc1`, the melting point is reported as 132 to 134 °C.
In the case of `CCOC(=O)c1ccc(-c2c(F)ccc([N+](=O)[O-])c2F)cc1`, the melting point is reported as 85 to 86.7 °C.
`O=S(=O)(Cl)c1c(Cl)cc(F)cc1Cl` gave a melting point of 57 °C.
In the case of `c1ccc(C23CC(C2)C3)cc1`, the melting point is reported as 64 to 65 °C.
In the case of `O=C(CN1CCCCC1)Nc1ccc([N+](=O)[O-])cc1`, the melting point is reported as 144 to 145 °C.
For `CC(C)NC(=S)N1CCc2c(ncn2C)C1`, the melting point was 200 °C.
Work on `N#Cc1c(CCl)[nH]c(=O)[nH]c1=O` yielded a melting point of 229 °C.
Molecule `CCN(CC)C(=O)c1ccc([N+](=O)[O-])c(C)c1` has a melting point of 74.5 to 76 °C.
`Cc1oc(-c2ccccc2)nc1CCC(=O)c1ccc(CCC=O)cc1` showed a melting point of 92 to 93 °C.
With `COc1cc(C(=O)N2CCN(C(=O)C3=Cc4cc(OCc5ccccc5)c(OCc5ccccc5)cc4CCC3)CC2)cc(OC)c1OC` the melting point was 130 to 132 °C.
Work on `COC1(c2cccc(OCc3ccc(-n4ccnc4)cc3)c2)CCOCC1` yielded a melting point of 129 to 130 °C.
Work on `CCN(CC)CC1CCCCN1CCNC(=O)N1c2ccccc2NC(=O)c2cccnc21` (stereo not given) yielded a melting point of 146 to 148 °C.
`Cc1ccc(S(=O)(=O)NC(=O)n2sc(Cl)cc2=O)cc1` gave a melting point of 125 to 128 °C.
`Cc1cc([N+](=O)[O-])ccc1Oc1cncc(Cl)c1` gave a melting point of 80 to 82 °C.
For `CN1Cc2c(Br)ncn2-c2ccccc2C1=O`, the melting point was 196 to 198 °C.
`CCC1C(O)C2C3CCC(C(C)CCC(=O)O)C3(C)CCC2C2(C)CCC(O)CC12` (stereo not given) gave a melting point of 110 °C.
Molecule `CC(C)(C)c1ccc([PH](=O)c2ccc(C(C)(C)C)cc2)cc1` has a melting point of 142 °C.
`CNC(=O)C(=O)c1cc(Cl)cc(C)c1NC(=O)c1cc(Br)nn1-c1ncccc1Cl` gave a melting point of 246 to 247 °C.
For `O=c1c2ccccc2nc(CCl)n1-c1ccccc1Cl`, the melting point was 195 to 196 °C.
`CC(=O)Nc1cc(C)cc(CCC(=O)O)n1` showed a melting point of 202 °C.
`O=[N+]([O-])c1cccc(C(F)(F)F)c1NCC(O)CO` (stereo not given) showed a melting point of 117 °C.
Molecule `Cc1ccc(NCC2CCNCC2)c(C(=O)Nc2ccc(F)cn2)c1` has a melting point of 147 to 149 °C.
Work on `O=c1nc2n(c(=O)n1CCBr)CCCC2` yielded a melting point of 64 to 66 °C.
Molecule `COc1c(Cl)cc(C(=O)Nc2ccc(F)cc2)c(Nc2ccccc2)c1Cl` has a melting point of 220 °C.
`CCN1CCN(Cn2nc(-c3ccsc3)c3c2-c2ccccc2C3)CC1` gave a melting point of 111 to 112 °C.
`O=C1c2ccccc2C(=O)N1CCCSc1ccccc1` showed a melting point of 83 to 85 °C.
For `CC1(C)OC(=O)C(c2ccc(-c3cscn3)cc2)=C1c1ccc(S(C)(=O)=O)cc1`, the melting point was 216 °C.
Work on `COc1ccccc1C(=O)c1c(SC)nn(-c2c(Cl)cc(Cl)cc2Cl)c1N` yielded a melting point of 200 to 202 °C.
For `COCC(O)COc1ccc2cc(S(N)(=O)=O)sc2c1` (stereo not given), the melting point was 128 to 129 °C.
`CC(C)OC(=O)C(=O)Nc1cc(Cl)ccc1O` gave a melting point of over 300 °C.
Molecule `CC(C)(C)c1cc(-c2nn(CC(F)(F)F)c3ncccc23)cc(C(C)(C)C)c1O` has a melting point of 104 to 106 °C.
Work on `CC1(O)CC(C)(C)N(N=Cc2ccccc2)C(C)(C)C1` yielded a melting point of 84 °C.
With `c1ccc(-n2c(-c3ccc(OCCCN4CCCCC4)cc3)nc3ccccc32)cc1` the melting point was 86 °C.
With `O=C(O)C(Oc1ccc(N2CCCCC2)cc1)c1cccc(Cl)c1` (stereo not given) the melting point was 149 to 151 °C.
In the case of `COc1cc2c(CSCCN3CC=C(c4ccccc4)CC3)c[nH]c2cc1C(=O)O`, the melting point is reported as 168 to 171 °C.
`N#CCCCCCCc1nc(-c2ccc(Cl)cc2)c(-c2ccc(Cl)cc2)o1` showed a melting point of 64 °C.
`COC(=O)c1ncoc1-c1cc(OC)c(OC)c(OC)c1` gave a melting point of 175 to 176 °C.
`Cn1cc(C2=C(c3cn(CCCNc4ncccc4[N+](=O)[O-])c4ccccc34)C(=O)NC2=O)c2ccccc21` showed a melting point of 218 to 220 °C.
With `CN(CCC(=O)C(Cc1ccccc1)NC(=O)c1ccccc1)C(=O)N1CCCC1C(=O)O` (stereo not given) the melting point was 38 to 68 °C.
Work on `CCN(CC)Cc1nc(-c2ncn3c2[C@@H]2CCN2C(=O)c2ccccc2-3)no1` yielded a melting point of 209 to 211 °C.
Work on `Cc1ccc(Sc2cc(C(C)(C)C)c(O)c(C(=O)O)c2C)cc1` yielded a melting point of 163 to 164 °C.
`Cc1c(-c2ccccc2)oc2c(C(=O)O)cc(Br)cc2c1=O` showed a melting point of 287 to 289 °C.
For `Cc1noc(C)c1-c1cc(OC2SCC(O)C(O)C2O)ccn1` (stereo not given), the melting point was 143 to 147 °C.
`CCOC(=O)CNc1nc2ccccc2s1` gave a melting point of 91 to 97 °C.
`Cc1nn(C2CCOC2)c(N)c1C#N` (stereo not given) gave a melting point of 134 to 135 °C.
With `CCOc1ccc2c(c1)n(C1CCCCC1)c(=O)n2Cc1ccc([N+](=O)[O-])cc1OC` the melting point was 120 °C.
For `Cc1oc(-c2ccccc2)nc1CCOc1ccc(/C=C/CO)cc1`, the melting point was 127 to 128 °C.
Work on `CCCCOC(Cc1ccc(OCCN2c3ccccc3Oc3ccccc32)cc1)C(=O)O` (stereo not given) yielded a melting point of 84 to 88 °C.
Molecule `Cc1nc(Cl)c2ccccc2c1CC(=O)O` has a melting point of 180 to 183 °C.
In the case of `C=CCN1CC(=O)N2CCC[C@H]2C1=O`, the melting point is reported as 106 to 109 °C.
Work on `CC(C)(C)Sc1ccc(Cn2c(CC(C)(C)C(=O)O)c(SC(C)(C)C)c3cc(OCc4ccc5ccccc5n4)ccc32)cc1` yielded a melting point of 172 to 173 °C.
Work on `CCOC(=O)c1nnc2c3ccc(Cl)cc3c(-c3ccccc3)nn12` yielded a melting point of 266 to 268 °C.
With `Cc1c[nH]c(=O)c2ccccc12` the melting point was 175 to 176 °C.
`O=C(O)c1ccc2c(c1)C=C(CCN1CCCC1)CC2` showed a melting point of 202 to 203 °C.
Molecule `CC(C)(C)c1cc(C(C)(C)c2cc(C(C)(C)C)c(O)c(C(C)(C)C)c2)cc(C(C)(C)C)c1O` has a melting point of 148 to 154 °C.
`CC(=O)c1ccc2c(c1)C(Cl)Cc1ccc(F)cc1S2` (stereo not given) gave a melting point of 112 to 114 °C.
With `COc1cc2c3c(cccc3c1N1CCCCC1)C(=O)N(O)C2=O` the melting point was 204 to 205 °C.
For `Cc1nc2c(s1)CCCC2=O`, the melting point was 86 to 87 °C.
Work on `CO/N=C(\C)c1ccc(Nc2c3ccccc3nc3occc23)cc1` yielded a melting point of 167 to 168 °C.
With `C[C@@H](Nc1ncnc2cc(OCCO)c([N+](=O)[O-])cc12)c1ccccc1` the melting point was 187 to 192 °C.
In the case of `COc1cc2c(cc1OC)C(O)N(CCc1ccccc1)C2=O` (stereo not given), the melting point is reported as 130 °C.
Molecule `O=C1CCC(N2C(=O)c3ccc(CNC(=O)Nc4ccc(Cl)c(Cl)c4)cc3C2=O)C(=O)N1` (stereo not given) has a melting point of 290 to 292 °C.
For `CSC1=CC2=CN(O)NN2C(SC)=N1`, the melting point was 275 to 278 °C.
For `COc1ccc2c(c1)C(=O)CC1(CCN(c3cc(=O)n(C)c(=O)n3C)CC1)O2`, the melting point was 202 to 203 °C.
For `COC(=O)c1cccc(OC)c1OS(=O)(=O)NC(=O)Nc1nc(OC)cc(OC)n1`, the melting point was 169 to 170 °C.
Molecule `Cc1cc(-c2ccc(Cl)cc2)nc(-n2cnc(-c3ccc(S(N)(=O)=O)cc3)c2)n1` has a melting point of 312 °C.
`O=c1cc(-c2cccc(F)c2)oc2ccc(OCCCCCCN3CCC(O)CC3)cc12` showed a melting point of 136 to 137 °C.
`CC(C)(S)CNC(=O)COCC(=O)O` showed a melting point of 81 to 82 °C.
